From patent US20100062441A1, “C-MET MUTATIONS AND USES THEREOF” (priority 2007, published 2010)
“And” between values parts separate entries of the source, which are not always exact repeats. Identical values can stand only once.

Key:
[1] = system: C. elegans N2 wild type
Protocol: (§1) To examine the effect of human c-met gene expression in C. elegans, both wild-type c-Met cDNA and mutant c-Met cDNA were individually micro-injected into young adult wild type N2 hermaphrodite gonads (gonad syncitium), at a concentration of 25 μg/ml. The constructs for the mutant c-Met cDNA were generated as described above. Control animals (N2) were injected with vector alone. Injected animals were individually cloned and their progeny were observed under dissecting microscope. Progenies were isolated and examined for visible morphological abnormalities such as defects in vulval formation, body morphology and locomotion. Individually cloned transgenic animals were further analyzed for fecundity and viability.
(§2) Animals in the progeny harboring a visible phenotype such as vulva defect, body morphology change, locomotion defect, and paralysis; and animals showing hyperactivity were isolated, individually cloned and examined with dissecting microscope. For detailed analysis of the phenotype, individual animals were mounted on an agar pad and observed under a Nikon Eclipse E600 fluorescence microscope equipped for Nomarski optics. Images were taken by a Hamamatsu Photonics CCD camera, and processed using the Metamorph digital imaging software (Siddiqui et al., Am J Physiol Lung Cell Mol Physiol 286, L1016-26 (2004)).
(§3) To determine whether a c-Met germline mutation alone is sufficient for lung cancer development or whether in order to develop lung cancer development a synergism of c-Met with smoking is necessary, the C. elegans transgenic animals described above were exposed to nicotine. Nicotine response experiments were performed in M9 buffer as previously described by Waggoner, et al. (Waggoner et al., J Neurosci 20, 8802-11 (2000)). Animals were cultured at 20° C. on nematode growth media (NGM) plates seeded with E. coli strain OP50. To examine the nicotine dose response, individual young adult hermaphrodites were placed in 6-well microtiter plate in M9 buffer at different concentrations of nicotine. Following one hour incubation with nicotine medium plates at 20° C., total numbers of eggs laid by each individual animal were counted.

[2] = system: R988C c-Met transgenic C. elegans
Protocol: as §1, §2, §3

[3] = system: T1010I c-Met transgenic C. elegans
Protocol: as §1, §2, §3

[4] = system: wild type human c-Met transgenic C. elegans; conditions: Wt c-Met
Protocol: as §1, §2, §3

[5] = system: reactive oxygen species (ROS) in MU melanoma cells; assay: Reactive oxygen species measurement by DHE immunofluorescence; type: cell-based, human; conditions: HGF 40 ng/ml for 7.5 min; DHE
Protocol: 5×10^4 MU melanoma cells were plated in 35 mm petri dishes. After 24 hrs MU Melanoma cells were kept in serum free media containing 0.5% BSA with and without 5 μM SU11274 for 12 hrs. Cells were treated with 40 ng/ml HGF for 7.5 min, then treated with DHE 10 μM (molecular probes Inc, Eugene, Oreg.) for 30 min, after which they were visualized under a fluorescent Olympus microscope IX81, 20× objective, ND3 and Rhodamine filter sets. Fluorescence was then quantified using Image J and graphed.
The endogenous levels of reactive oxygen species (ROS) was also analyzed in MU melanoma cells with and without HGF treatment using DHE by fluorescence microscopy. DHE is a redox sensitive probe that has widely been used to detect intracellular superoxide anion. The relative levels of ROS were increased in response to HGF by 47%, and SU11274 decreased the ROS response to HGF to 3%.

[6] = system: NSCLC; conditions: in combination with chemotherapy; cited from earlier work
[7] = chronic exposure with nicotine (20 μm)
[8] = nicotine (20 μM) for 24 hours or more

CN1CCCC1c1cccnc1 (stereo not shown) [nicotine]
Body Shape Changes [1, 7]: 3% and 3 ± 0.21 % | Growth Arrest [1, 7]: 1.23% and 1.23 ± 0.19 % | Locomotion Defects [1, 7]: 1% and 1 ± 0.18 % | Paralysis [1, 7]: 2% and 2 ± 0.02 % | viability ([1]; in the presence of nicotine): 91.94% | vulval defects [1, 8]: 2% | Body Shape Changes [2, 7]: 18% and 18 ± 0.13 % | Growth Arrest [2, 7]: 22.9% and 22.9 ± 0.41 % | viability ([2]; in the presence of nicotine): 30.54% | vulval defects [2, 8]: 15% | Body Shape Changes [3, 7]: 21% and 21 ± 0.14 % | Growth Arrest [3, 7]: 29% and 29.0 ± 0.11 % | viability ([3]; in the presence of nicotine): 4.58% | vulval defects [3, 8]: 28% | Body Shape Changes [4, 7]: 12% and 12 ± 0.22 % | Growth Arrest [4, 7]: 9.72% and 9.72 ± 0.16 % | Locomotion Defects [4, 7]: 11% and 11 ± 0.09 % | Paralysis [4, 7]: 8% and 8 ± 0.08 % | viability ([4]; in the presence of nicotine): 65.06% | vulval defects [4, 8]: 6%

HGF: hepatocyte growth factor, the ligand for c-Met
increase of relative levels of ROS [5]: 47%

bevacizumab: targeted therapy against VEGF
enhancement of median overall survival [6]: 2.3 months
